In one assay the target is hMT1. To be noted: read-out: Ki hMT1; competition for 2-[125I]-iodomelatonin (300 pM); cited from earlier work.
A further assay deals with hMT2. To be noted: read-out: Ki hMT2; competition for 2-[125I]-iodomelatonin (300 pM); cited from earlier work.
Assay [1] concerns the target T1, hMT1 melatonin receptor (Homo sapiens, UniProt P48039). The assay is described as follows: biochemical. The assay is classed as binding.
Assay [2] has as its target T2, hMT2 melatonin receptor (Homo sapiens, UniProt P49286).
T2 sequence (P49286 1-362): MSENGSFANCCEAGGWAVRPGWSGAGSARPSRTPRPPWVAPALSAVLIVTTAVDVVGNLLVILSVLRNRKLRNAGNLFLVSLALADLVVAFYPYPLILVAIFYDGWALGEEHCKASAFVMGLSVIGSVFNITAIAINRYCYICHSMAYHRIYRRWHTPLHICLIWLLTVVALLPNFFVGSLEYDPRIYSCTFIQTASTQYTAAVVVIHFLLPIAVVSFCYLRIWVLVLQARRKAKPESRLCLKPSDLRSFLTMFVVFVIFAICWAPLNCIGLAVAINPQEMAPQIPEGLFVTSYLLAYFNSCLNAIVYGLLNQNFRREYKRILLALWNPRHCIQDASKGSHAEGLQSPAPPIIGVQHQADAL
The assay can be described thus: biochemical. To be noted: for fold higher affinity for hMT2 than for hMT1: competition with 2-[125I]-iodomelatonin binding; for ratio MT1/MT2 (KiMT1/KiMT2): fold difference in affinity between hMT1 and hMT2. The assay is classed as binding.

The target in assay [3] is T1, hMT1 melatonin receptor. The assay is described as follows: biochemical. The format is binding. To be noted: for ratio KiGTP/KiControl, human MT1: 100 μM GTP vs control; for ratio KiGTP/KiControl, human MT1 / Ki: mean ± SEM; for apparent intrinsic efficacy at hMT1 from GTP shift: classified by KiGTP/KiControl: agonists >1, antagonists =1, inverse agonists <1; for Ki: human MT1 Ki value, 25 °C, 1 h.

The target of assay [4] is T2, hMT2 melatonin receptor. The assay is described as follows: biochemical. The assay is classed as binding. To be noted: for ratio KiGTP/KiControl, human MT2: 100 μM GTP vs control; for ratio KiGTP/KiControl, human MT2 / Ki: mean ± SEM; for apparent intrinsic efficacy at hMT2 from GTP shift: classified by KiGTP/KiControl: agonists >1, antagonists =1, inverse agonists <1; for Ki: human MT2 Ki value, 25 °C, 1 h.

A further assay concerns serotonin levels. To be noted: single oral dose 60 mg/kg; cited from earlier work.

For orientation: Ki means a measure of affinity in units of concentration, obtained from inhibition or displacement.

Molecules are shown by their SMILES. Where two headings read alike, the source gives them in different places.

T1 sequence (P48039 whole entry): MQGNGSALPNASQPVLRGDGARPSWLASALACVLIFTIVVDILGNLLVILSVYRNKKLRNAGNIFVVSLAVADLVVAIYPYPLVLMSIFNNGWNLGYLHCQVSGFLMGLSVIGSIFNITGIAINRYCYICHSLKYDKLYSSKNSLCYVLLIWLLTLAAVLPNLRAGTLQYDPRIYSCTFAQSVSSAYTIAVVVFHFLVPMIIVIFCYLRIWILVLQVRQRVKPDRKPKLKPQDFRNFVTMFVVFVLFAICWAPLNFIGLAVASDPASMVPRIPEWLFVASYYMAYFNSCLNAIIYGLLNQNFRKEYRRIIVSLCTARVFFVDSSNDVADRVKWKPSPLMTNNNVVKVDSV

As for `CCC(=O)NC1Cc2ccccc2C(c2ccccc2)C1` (centres unmarked) [4P-PDOT], the results for the Ki at hMT1 and at hMT2 were 658 nM and 0.41 nM, respectively.

On to `CNC(=O)Oc1cccc2ccccc12` [carbaryl, 1-naphthyl methylcarbamate], for which the inhibition constant Ki at hMT1 melatonin receptor [1] (affinity at hMT1, text of discussion, equals the Table 2 control value) was found to be 2330 nM; at hMT2 melatonin receptor [2], 70 ± 10 nM; on hMT1 melatonin receptor [3] (GTP, presence of 100 μM GTP) it was 1210 ± 110 nM; at hMT1 melatonin receptor [3] (control, absence of GTP), 2330 ± 530 nM; at hMT2 melatonin receptor [4] (GTP, presence of 100 μM GTP), 310 ± 30 nM; on hMT2 melatonin receptor [4] (control, absence of GTP), 70 ± 5 nM. At hMT2 melatonin receptor [2], the “fold higher affinity for hMT2 than for hMT1” value was determined as 33 fold. Moreover, the “ratio MT1/MT2 (KiMT1/KiMT2)” value on hMT2 melatonin receptor [2] amounted to 32.4. The “ratio KiGTP/KiControl, human MT1” value at hMT1 melatonin receptor [3] worked out at 0.65 ± 0.16. For the same molecule, at hMT1 melatonin receptor [3], the “apparent intrinsic efficacy at hMT1 from GTP shift” value is “antagonist/inverse agonist”. Further, at hMT2 melatonin receptor [4], the “ratio KiGTP/KiControl, human MT2” value worked out at 4.82 ± 0.82. In addition, the “apparent intrinsic efficacy at hMT2 from GTP shift” value at hMT2 melatonin receptor [4] was “agonist”. In the assay on serotonin levels, the levels of serotonin result is reported as “increased”.

Take `CNC(=O)Oc1cccc2c1OC(C)(C)C2` [carbofuran, 2,3-dihydro-2,2-dimethyl-7-benzofuranyl methylcarbamate]: the inhibition constant Ki at hMT1 melatonin receptor [1] came out at 58500 ± 8250 nM; on hMT2 melatonin receptor [2], 1680 ± 240 nM; on hMT1 melatonin receptor [3] (GTP, presence of 100 μM GTP) it was 29900 ± 8600 nM; on hMT1 melatonin receptor [3] (control, absence of GTP), 63500 ± 12500 nM; on hMT2 melatonin receptor [4] (GTP, presence of 100 μM GTP) it was 12100 ± 2630 nM; on hMT2 melatonin receptor [4] (control, absence of GTP), 1670 ± 390 nM. Also, the “fold higher affinity for hMT2 than for hMT1” value on hMT2 melatonin receptor [2] is recorded as 35 fold. Besides, the “ratio MT1/MT2 (KiMT1/KiMT2)” value on hMT2 melatonin receptor [2] was 34.8. Moreover, the “ratio KiGTP/KiControl, human MT1” value on hMT1 melatonin receptor [3] is 0.59 ± 0.24. Further, the “apparent intrinsic efficacy at hMT1 from GTP shift” value at hMT1 melatonin receptor [3] is listed as “antagonist/inverse agonist”. In addition, on hMT2 melatonin receptor [4], the “ratio KiGTP/KiControl, human MT2” value was 10.8 ± 4.2. Besides, the “apparent intrinsic efficacy at hMT2 from GTP shift” value on hMT2 melatonin receptor [4] is listed as “agonist efficacy”.

For the molecule `CC(=O)NCCc1c(Cc2ccccc2)[nH]c2ccccc12` [luzindole], the inhibition constant (Ki) on hMT1 was 179 nM; on hMT2, 7.3 nM.

The values above are taken from paper PMC5318275 (Chemical research in toxicology, 2017).
